Source: patent publication US11963996B2, “Method of treating knee pain” (ORTHOTROPHIX, Inc., priority 2018, dated 2024)
Entries after “also recorded” stand apart in the source; their conditions may differ.

Assays:
[1] = system: subjects with bilateral patello-femoral knee osteoarthritis; experiment: Phase 2 randomized double-blind placebo-controlled study of TPX-100: patient-reported outcomes (KOOS, WOMAC); format: in vivo, human; settings: for KOOS ADL (knee function in activities of daily living) improvement over baseline / WOMAC Function subscale improvement: 200 mg intra-articular x4 once weekly, 6 and 12 months; for KOOS ADL (knee function in activities of daily living) improvement over baseline: Index vs Control (placebo) Knees
Protocol: A multicenter, randomized double-blind, placebo-controlled study was designed to investigate the safety, tolerability, pharmacokinetics, and efficacy of TPX-100 administered in four weekly doses in subjects with bilateral patello-femoral knee osteoarthritis. The study was conducted under an open IND (investigational new drug application) at CDER (Center for Drug Evaluation and Research) of the U.S. FDA (The United States Food and Drug Administration) in compliance with GCP (Good Clinical Practice) and ICH (International Conference on Harmonization of Technical Requirements for Registration of Pharmaceuticals for Human Use) guidelines. Eighteen (18) orthopedic, rheumatologic and family practice centers in the U.S. participated in the study.
(§1) The study was divided into Part A and Part B. The Part A was designed to evaluate safety of intra-articular (I.A.) administration of TPX-100 at different dosing levels (20, 50, 100, or 200 mg per injection in sequential cohorts) in the subjects with osteoarthritis of the knees and to select a dose for Part B. Part B was to evaluate safety and efficacy of the selected dose of TPX-100.
(§2) Subjects in Part A were enrolled in sequential cohorts and randomized to receive 20, 50, 100 or 200 mg of TPX-100 in one knee (Index Knee) and identical placebo in the contralateral (Control) knee. Subjects, sites and sponsor and central MRI readers were blinded as to treatment assignment. A Safety Review Committee (SRC) evaluated safety in each dosing cohort. The SRC assessed safety and determined whether the next higher dosing regimen could be enrolled. All dosing cohorts in Part A were completed and analyzed with regard to safety prior to dose selection and initiation of Part B.
Part A included four (4) intra-articular (I.A.) injections, one per week, in sequential dosing cohorts of 20, 50, 100 and 200 mg TPX-100 versus placebo. Six (6) subjects were enrolled in 20, 50, and 100 mg cohorts, respectively, and nine (9) subjects were enrolled in the 200 mg cohort.
The 200 mg dose was selected for Part B based on safety review and the approval of the SRC. […] Per the Statistical Analysis Plan, these subjects were combined with the nine subjects in the 200 mg cohort of Part A for the efficacy analysis. In total, data from 93 subjects was analyzed for drug efficacy, each of whom received 4 once-weekly injections of TPX-100, 200 mg/dose, in the Index knee and identical placebo in the contralateral knee, as randomly assigned.
In both Part A and Part B, subjects received 4, once-weekly doses of active drug in the knee randomized to active drug in the Index knee and placebo in the contralateral (Control) knee, delivered by the intra-articular route. No other doses of drug or placebo were administered. All subjects visited their respective clinical sites at 3, 6, and 12 months after the first dosing for their safety and efficacy assessments.
On the first dosing day, the randomized subjects were assessed by physical examinations and vital signs. Further, they completed the Knee injury and Osteoarthritis Outcome Score (KOOS), which includes the Western Ontario and McMaster Universities Osteoarthritis Index (WOMAC). The KOOS questionnaire assesses knee-specific activities of daily living, sports and recreation, knee-related quality of life, other symptoms such as stiffness, and knee pain. The KOOS has been used extensively in longitudinal studies of knee osteoarthritis. After assessments were completed, subjects received one intra-articular injection in each knee, with each injection prepared from the vial(s) marked for that knee. One knee received TPX-100, and the contralateral knee received placebo with subject, site, and sponsor blinded to treatment assignment. Subjects were monitored for adverse events during the injections and for a few hours after the injections. Vital signs were also monitored after the injections. […]

defects in human molar = experiment: Phase 2 study of dentin formation in defects in human molar; format: in vivo; settings: both Phase 2 studies
Protocol: Based on these safety and bone and dentin formation data, TPX-100 was tested in two Phase 2 studies for alveolar bone and dentin formation activities, respectively.

[2] = system: subjects with bilateral patello-femoral knee osteoarthritis; experiment: Same study: MRI-based patello-femoral and tibiofemoral cartilage thickness; format: in vivo, human
Protocol: (§3) Subjects returned to their respective study sites at 3, 6 and 12 months after the first dosing day for follow-up evaluations. In addition, the study sites monitored the subject's condition through telephone contact 9 months after the first dosing day. During the 3, 6, and 12 months post-treatment, subjects were evaluated on site with physical examinations, vital signs, serum chemistries, as well as completing patient-reported outcomes including the KOOS. Adverse events and concomitant medications were recorded. MRIs of both knees were obtained during the 6 and 12-month visits.
All KOOS subscale scores, WOMAC Total score and subscale scores, MRI-based patello-femoral and tibiofemoral cartilage thickness, and MRI-based periarticular bone area and 3D bone shape were analyzed.
MRI images were provided to central readers cartilage and periarticular bone measures. Central readers were blind as to treatment assignment.
Statistical analyses were carried out using a two-sided paired t-test at the 5% level of significance. The outcome variables were the differences of the change of the score of each subscale of KOOS, change of cartilage thickness, periarticular bone area, and 3D bone shape score (“B Score”) change from baseline to 6 and 12 months in the treated knee (“Index Knee”) compared with the placebo-exposed knee (“Control Knee”).

rat dental defect = settings: in vivo; cited from earlier work
[3] = system: subjects with bilateral patello-femoral knee osteoarthritis; experiment: Same study: safety and tolerability; format: in vivo, human
Protocol: as §1, §2
On the first dosing day, the randomized subjects were assessed by physical examinations and vital signs. Further, they completed the Knee injury and Osteoarthritis Outcome Score (KOOS), which includes the Western Ontario and McMaster Universities Osteoarthritis Index (WOMAC). The KOOS questionnaire assesses knee-specific activities of daily living, sports and recreation, knee-related quality of life, other symptoms such as stiffness, and knee pain. The KOOS has been used extensively in longitudinal studies of knee osteoarthritis. After assessments were completed, subjects received one intra-articular injection in each knee, with each injection prepared from the vial(s) marked for that knee. One knee received TPX-100, and the contralateral knee received placebo with subject, site, and sponsor blinded to treatment assignment. Subjects were monitored for adverse events during the injections and for a few hours after the injections. Vital signs were also monitored after the injections.
On the 7th, 14th, and 21st days after the first dosing, subjects received the second, third, and fourth (last) dosing of the same study materials, respectively. Safety and adverse event assessments were obtained as on the first dosing day.
as §3

[4] = system: full-thickness chondral defect; settings: in vivo; cited from earlier work
[5] = 200 mg IA x4, Index vs Control Knees, 12 months
[6] = Index vs Control Knees, 6 or 12 months

Substance: TPX-100: synthetic peptide consisting of 23 amino acids, TDLQERGDNDISPFSGDGQPFKD, derived from human Matrix Extracellular Phosphoglycoprotein (MEPE)
- KOOS Sports and Recreation subscale improvement ([1]; 200 mg IA x4, Index vs Control Knees, 6 months): clinically meaningful and statistically significant improvement
- KOOS Knee-related QOL subscale improvement [1, 5]: clinically meaningful and statistically significant improvement
- KOOS Pain subscale improvement [1, 5]: only a statistical trend (p<0.09) of improvement; also recorded: clinically meaningful improvement in Index Knees as compared to Control Knees at 12 months, with a trend towards statistical significance (p<0.09)
- Pain Frequency (KOOS Pain question 1) [1, 5]: statistically significant improvement in Index Knees as compared to Control Knees (p<0.05); also recorded: significantly reduced (p<0.05)
- Pain going up or down stairs (KOOS Pain question) [1, 5]: statistically significant improvement in Index Knees as compared to Control Knees (p<0.05); also recorded: significantly improved (p<0.05)
- WOMAC Pain domain improvement [1, 5]: clinically meaningful improvement in Index Knees at 12 months compared with Control knees, although the difference did not reach statistical significance
- KOOS ADL (knee function in activities of daily living) improvement over baseline [1]: clinically meaningful and statistically significant (p<0.05) improvements
- KOOS ADL (knee function in activities of daily living) improvement over baseline ([1]; listed as peptide of SEQ ID No. 1): clinically meaningful and statistically significant (p=0.008) improvement
- WOMAC Function subscale improvement ([1]; Index vs Control Knees): same robust improvement in Index Knees as compared to Control Knees
- WOMAC Function subscale improvement ([1]; Index vs Control Knees, listed as peptide of SEQ ID No. 1): clinically meaningful and statistically significant (p=0.008) improvement
- WOMAC Total score improvement ([1]; Index vs Control Knees, 6 or 12 months, or both): significant improvements in favor of Index knees
- Decrease in use of analgesics by participants ([1]; overall, over the 12-month study period): 62.5%
- Pain frequency in responders, baseline to 12 months ([1]; responders to treatment, 12 months): decreased from daily pain at baseline to semi-monthly pain at 12 months
- Pain frequency in responders, baseline to 12 months ([1]; responders to treatment, 12 months, listed as peptide of SEQ ID No. 1): semi-weekly
- Improvement of pain frequency score in responder group ([1]; responders to treatment, baseline score 3 (daily), at 12 months): approximately 1.5 points
- Tolerability in two Phase 2 studies (alveolar bone, dentin) (defects in human molar): well tolerated in both studies
- Overall tibiofemoral cartilage thickness change from baseline [2, 6]: not measurably different between Index and Control Knees
- Patello-femoral (patella) cartilage thickness change from baseline by MRI (primary endpoint) [2, 6]: no statistically significant difference between Index vs. Control Knees; also recorded: no measurable difference between Index and Control Knees
- Tibiofemoral cartilage thickness change in TPX-100-treated responder knees ([2]; knees with clinically meaningful functional improvements, baseline to 12 months): significantly increased
- Dentin formation (rat dental defect): promote dentin formation
- Safety and tolerability ([3]; 200 mg per dose, 4 once-weekly intra-articular injections): safe and well tolerated
- Dose-limiting toxicities ([3]; Part A, 20, 50, 100 and 200 mg per injection): no dose-limiting toxicities
- Severe adverse events related to treatment ([3]; in vivo): no severe adverse events that were related to TPX-100 treatment
- Severity of treatment-related adverse events ([3]; in vivo): mild or moderate, transient
- Safety and tolerability in goats [4]: safe and well-tolerated
